Experimental data: PubChem BioAssay (NCI)
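Following 48 hours of exposure in 96-well plates, responses at five concentrations were used to interpolate endpoints linearly. Here, GI50 denotes the concentration required for 50% inhibition of growth. TGI: concentration producing complete growth inhibition.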

Tests used:
Assay in all cases: growth of human tumour cells (NCI), 48 h
OVCAR-5 ovarian = system: OVCAR-5 ovarian
HCT-15 colon = system: HCT-15 colon
A549 NSCLC = system: A549 NSCLC
MDA-MB-435 = system: MDA-MB-435
SK-MEL-28 melanoma = system: SK-MEL-28 melanoma
MDA-MB-231 breast = system: MDA-MB-231 breast
EKVX NSCLC = system: EKVX NSCLC
786-0 renal = system: 786-0 renal
LOX IMVI melanoma = system: LOX IMVI melanoma
CCRF-CEM leukemia = system: CCRF-CEM leukemia
COLO 205 colon = system: COLO 205 colon

SMILES	TGI (OVCAR-5 ovarian) [µM]	TGI (HCT-15 colon) [µM]	TGI (A549 NSCLC) [µM]	TGI (MDA-MB-435) [µM]	TGI (SK-MEL-28 melanoma) [µM]	TGI (MDA-MB-231 breast) [µM]	TGI (EKVX NSCLC) [µM]	TGI (786-0 renal) [µM]	TGI (LOX IMVI melanoma) [µM]	TGI (CCRF-CEM leukemia) [µM]	TGI (COLO 205 colon) [µM]	GI50 (OVCAR-5 ovarian) [µM]	GI50 (HCT-15 colon) [µM]	GI50 (A549 NSCLC) [µM]	GI50 (MDA-MB-435) [µM]	GI50 (SK-MEL-28 melanoma) [µM]	GI50 (MDA-MB-231 breast) [µM]	GI50 (EKVX NSCLC) [µM]	GI50 (LOX IMVI melanoma) [µM]	GI50 (CCRF-CEM leukemia) [µM]
Nc1ccc(N=Nc2c(S(=O)(=O)O)cc3ccccc3c2S(=O)(=O)O)cc1	> 100	> 100	> 100	> 100	> 100	> 100	> 100	> 100	> 100	> 100										
O=C(/C=C/c1ccccc1)Oc1ccc(C(=O)/C=C/c2ccccc2)cc1	21.4	17.3	> 89.1	18.8	21.3	23	22	13.7	17.7	10.9	21									
O=C(O)c1ccccc1CC(Cc1ccc2c(c1)CCC2)C(=O)O (stereo unspecified)	> 100	> 100	> 100	> 100	> 100	> 100	> 100	> 100	> 100	> 100	> 100									
COC(=O)C1CCCC2(C1)OCCO2 (stereo unspecified)	> 100	> 100	> 100		> 100		> 100	> 100	> 100	> 100	> 100									
N[C@@H](Cc1ccccc1)C(=O)N1CCC[C@@H]1P(=O)(Oc1ccccc1)Oc1ccccc1	> 100	> 100	> 100	> 100	> 100	> 100	> 100	> 100	> 100	> 100	> 100									
O=C(CCn1ccnc1[N+](=O)[O-])NCCCn1ccnc1[N+](=O)[O-]	> 100	> 100	> 100	> 100	> 100	> 100	> 100	> 100	> 100	> 100	> 100									
CN1CCOC1c1ccccc1O (stereo unspecified)	> 100	> 100	> 100	> 100		> 100	> 100	> 100	> 100	> 100	> 100									
On1c(-c2ccccc2)c(-c2ccccc2N2CCCC2)c2ccccc21	> 100	> 100	> 100		> 100		> 100	> 100	> 100	> 100	> 100									
CSC1=N/C(=C\c2ccc(C)cc2)C(=O)N1CN1CCCCC1	> 100	> 100	> 100	> 100	> 100	> 100	> 100	> 100	> 100		> 100									
CNc1cc2c(c3ccccc13)C(CCl)CN2C(=O)c1cc2cc(OC)c(OC)c(OC)c2[nH]1 (stereo unspecified)			> 100	0.0131	0.0351		0.0155	0.00346	0.00811	0.142	0.0114									
Cc1c2n(c(=O)[nH]c1=O)C1OC(CO)C(N=[N+]=[N-])C1O2 (stereo unspecified)		> 100	> 100		> 100		> 100	> 100	> 100	> 100	> 100									
N#CNC(=NCc1ccccc1)N(Cc1ccccc1)Cc1ccccc1	> 31.6	> 31.6	> 31.6	> 100	> 31.6	85.3		> 31.6	> 31.6	> 31.6										
CCCNc1ncnc2c1ncn2C		> 100	> 100	> 100	> 100	> 100	> 100	> 100	> 100	> 100	> 100									
Cc1nc(C)c(C(=O)NNC(=O)C[N+](C)(C)C)cc1C(=O)NNC(=O)C[N+](C)(C)C	> 100	> 100	> 100	> 100	> 100	> 100	> 100	> 100	> 100		> 100									
CCOC(=O)c1c(-c2ccc(O)c(OC)c2)c(C#N)c(=S)n(C2OC(CO)C(O)C(O)C2O)c1-c1ccccc1 (stereo unspecified)	> 100	> 100	> 100	> 100	> 100		> 100	> 100	> 100	> 100	> 100									
CCCCCCCCCCCCCCCCNc1cccc2ccccc12		> 100	> 100		> 100		> 100	> 100	> 100	> 100	> 100									
CCNC(=S)NNC(=O)C12CC3CC(CC(C3)C1)C2	> 100	> 100	> 100	> 100	> 100	> 100		> 100	> 100	> 100	> 100									
COC(C)(C)C1(O)CC[C@@H](C)CC1=O (stereo partly specified)	> 100	> 100	> 100	> 100	> 100		> 100	> 100			> 100									
CC(=O)NC1C(OCc2ccccc2)OC(CO)C(O)C1OCC(=O)N[C@@H](C)C(=O)N[C@H](CCC(=O)NCCCNc1c2ccccc2nc2cccc([N+](=O)[O-])c12)C(N)=O (stereo partly specified)	5.8	0.376		0.132	0.751	0.45	0.264	0.0795	0.259	> 100	0.0185									
CCCCCCCCCCCC[S+](C)C	22.5	53.8	26.1		25.3	10.1	20.2	13.3	15.9	14.5	5.15									
NC(=O)c1c(NC(=O)c2ccccc2)sc2c1CCC(=O)C2	11	1.93	> 100	10.5	19.2	22.9	11.5		19.5	> 100		1.77	0.375	3.58	3.09	2.88	2.3	1.82	1.15	0.37
